Results taken from article PMC6030159 (Scientific Reports, 2018).
“Also recorded” adds a separate entry of the source.

Assays:
[1] = test system: MYCN-amplified neuroblastoma cells (IMR-32, Kelly, SK-N-DZ); experiment: Resazurin growth assay, MYCN-amplified neuroblastoma cell lines; type: cell-based, human; conditions: MYCMI-6 6.25 μM, MYCMI-11 and MYCMI-14 25 μM, 10058-F4 64 μM, 48 hours
From the text: HEK293A, MCF7, MDA-MB231, SK-N-F1, SK-N-RA, SK-N-AS, COS-7, HeLa, BJ cells, and Rat1 fibroblasts TGR-1 (wt), HO15.19 (MYC knockout) and HOmyc3 (MYC reconstituted HO15.19) were maintained in DMEM. The neuroblastoma cell lines Kelly, IMR-32 and SK-N-DZ, and the Burkitt’s lymphoma cell lines Mutu, Daudi and ST486 were kept in RPMI. SK-N-BE(2) cells were maintained in a 1:1 mixture of EMEM and F12 media, supplemented with 1% non-essential amino acid solution (NEAA) and 0.5% Glutamine. U2OS-MYC-ER cell lines were cultured in phenol-red free DMEM and treated with 100 nM 4-hydroxytamoxifen (HOT) (Sigma-Aldrich) to activate MYC-ER. IMR-90 was maintained in MEM. All media were supplemented with 10% FBS and 1% penicillin and streptomycin and kept at 37 °C and 5% CO2. All cell lines were mycoplasma free. Cell proliferation assays were performed as described in Supplementary Information. […]
Cell proliferation assays. Cell growth and viability was estimated in triplicates with WST-1
(Roche) or Resazurin sodium salt (Sigma-Aldrich) assays in medium at 37°C and 5% CO 2 for
2 hours after which absorbance or fluorescence, respectively, was measured with an Omega
Fluostar (BMG Labtech) in a 96 well plate format. […]

[2] = target: MYC; parameters: method as in PMID 24859015; conditions: read-out: KD for MYC by SPR; cited from earlier work
[3] = test system: MYC-family protein levels; parameters: method as in PMID 28976731, PMID 24859015, PMID 23733953; conditions: cited from earlier work
[4] = test system: tumor cell growth in vivo; conditions: cited from earlier work
[5] = target: T1, MYCbHLHZip:MAXbHLHZip (Homo sapiens, UniProt P01106); experiment: SPR MYC:MAX heterodimer formation assay; type: binding; conditions: KJ-Pyr-9 up to 10 μM
T1 construct: 6xHis (N); made in house; host or cells: E. coli BL21 (DE3), pET28a
T1 sequence (P01106 367-447 limits assumed): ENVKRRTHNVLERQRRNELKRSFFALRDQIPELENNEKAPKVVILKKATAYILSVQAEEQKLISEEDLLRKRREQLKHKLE
Experimental: The SPR method is a highly sensitive assay to determine the affinity between protein and ligand and to measure the kinetics of the interaction. In the SPR MYC:MAX interaction assay, MAXbHLHZip was covalently attached onto a sensor chip and MYCbHLHZip pre-mixed with compound was injected over the surface and thereafter allowed to dissociate.
The SPR experiments were performed at 25 °C using a Biacore T200 (GE Healthcare) instrument kindly provided by SciLifeLab Solna. An amino coupling procedure was used to immobilize protein on a CM5 sensor chip (GE Healthcare). Sensorgrams were generated by subtraction of the reference (blank immobilized) surface. All details will be described in Castell et al. (manuscript in preparation). In general, for the MYC:MAX interaction assay, 200–500 RU of MAXbHLHZip was immobilized and 100 nM MYCbHLHZip pre-incubated with compound in PBS supplemented with 0.05% Tween-20 and 1% DMSO was injected with a flow rate of 30 µl/min and allowed to dissociate. MAX was regenerated by injection of PBS buffer supplemented with Urea.

[6] = target: T2, MYC bHLHZip (Homo sapiens, UniProt P01106); experiment: SPR direct binding to immobilized MYC; conditions: up to 8 μM
T2 construct: 6xHis (N); made in house; host or cells: E. coli BL21 (DE3), pET28a; purified in denaturing conditions
T2 sequence (P01106 367-447 limits assumed): as above
Experimental: Further, MYCMI-6 binding to MAX, MXD1 (MAD1) (Figs 4C and S5C and D), p53 (Fig. 4D), BSA (Suppl. Fig. S5E) and YFP (data not shown) were negligible. Binding to BCL-XL was only 10% of the theoretical maximum at 2 μM MYCMI-6 (Suppl. Fig. S5F).
The MYC SPR assay was carried out as described above with MYCbHLHZip immobilized to a level of 800–1000 RU. For kinetic binding experiments, a Langmuir 1:1 binding event was applied using the Biacore T200 Evaluation Software 2.0 (GE Healthcare) to determine association (ka) and dissociation (kd) constants of the compound and to calculate affinity (KD) by the formula; KD = kd/ka. Binding responses from equilibrium binding experiments were plotted against compound concentration and KD values were determined at 50% of the theoretical Rmax with the formula Rmax = (MW analyte/MW ligand) × immobilized ligand level on the chip (RU) × stoichiometry (1:1). Same coupling method described above was used to immobilize the control proteins. MAX was immobilized to approximately 2000 RU, MAD to 600 RU, BSA to 1000 RU, p53 to 3000 RU and BCL-XL, to 500 RU.

[7] = test system: recombinant MYC:MAX:DNA; parameters: method as in PMID 28976731, PMID 25114221; conditions: fluorescence polarization; read-out: IC50, MYC:MAX:DNA interaction; cited from earlier work
[8] = test system: MAX:MAX:DNA; parameters: method as in PMID 28976731, PMID 25114221; conditions: fluorescence polarization; read-out: IC50, MAX:MAX:DNA interaction; cited from earlier work
[9] = test system: MAX; parameters: method as in PMID 25114221; conditions: cited from earlier work
[10] = test system: T3, MYC:MAX; experiment: Gaussia luciferase complementation (GLuc) MYC:MAX; type: cell-based, human; conditions: 25 μM, 17 hours, HEK293 cells
T3 construct: fused to full length MYC (MYC-GLuc-C) and MAX (MAX-GLuc-N), respectively; expressed in transfected cells; host or cells: HEK293
Experimental: The protein fragment complementation assay using the Gaussia luciferase has been described. 0.2–0.4 μg of each GLuc-construct (see Supplementary Information) together with 0.05–0.2 μg pCMV-Luc (Firefly luciferase) were transiently transfected into HEK293 or COS-7 cells in 6-well plates. 24 hours later cells were treated with compound (10–25 μM) or DMSO. After another 17 hours, the cells were harvested and lyzed in passive lysis buffer (Promega) supplemented with complete protease inhibitor (Roche). After 60 min incubation at room temperature 20 μM D-luciferin was added (substrate of Firefly luciferase) and luminescence was measured in a Lumat LB9501 (Berthold) or OmegaFluostar (BMG Labtech) luminometer. Directly after, Gaussia luciferase substrate Coelenterazine (Promega) was added to a final concentration of 20 μM in a mixture with “Stop n’ Glow” (Promega) and the luciferase activity was measured. The ratio between Gaussia and Firefly luciferase values were calculated and normalized to DMSO-treated control cells.

[11] = test system: endogenous MYC protein; experiment: Western blot of endogenous MYC in HeLa cells; type: cell-based; conditions: 10 μM, 24 hours
Experimental: These assays were performed essentially as described in[67],[68]. For further information on immunohistochemistry, and on primers and antibodies, see Supplementary Information.

CCc1ccc(/C=C2/SC(=S)NC2=O)cc1 [10058-F4]
growth of MYCN-amplified versus MYCN-non-amplified neuroblastoma cell lines [1]: reduced growth of the MYCN-amplified cell lines significantly stronger than the MYCN-non-amplified cell lines | Kd [2]: ~40 µM | effect on MYC-family protein levels [3]: down-regulate | tumor cell growth in vivo, mouse tumor models [4]: Inhibition of tumor cell growth in vivo

O=[N+]([O-])c1ccc(Nc2ccccc2-c2ccccc2)c2nonc12 [10074-G5]
Kd [2]: ~32 µM | effect on MYC-family protein levels [3]: down-regulate

NC(=O)c1ccc(-c2cc(-c3ccc([N+](=O)[O-])cc3)nc(-c3ccco3)c2)cc1 [KJ-Pyr-9]
effect on MYC:MAX formation (SPR), in words [5]: no effect; also recorded: not affect the MYC:MAX interaction | binding to immobilized MYC (SPR), in words [6]: not detect any binding | IC50 [7]: ~10 µM | IC50 [8]: ~30 µM | binding to MAX, BSI [9]: not MAX | tumor cell growth in vivo, mouse tumor models [4]: Inhibition of tumor cell growth in vivo

CCN(CC)CC[n+]1ccc2c(C)c3[nH]c4ccccc4c3c(C)c2c1 [MYCMI-7]
MYC:MAX GLuc activity [10]: most potent | effect on endogenous MYC protein levels (western blot) [11]: reduced MYC protein expression
